Assay results published in publication PMC12587552, “A nitrogen-containing diphyllin derivative C156-P1 exhibited broad-spectrum antiviral activity against Flaviviridae viruses by preventing endosomal acidification” (Antimicrobial Agents and Chemotherapy, 2025).
Read-outs that look alike come from different tables or passages of the source.

How the values were obtained:
V-ATPase = V-ATPase (Homo sapiens, UniProt Q9Y487); assay: ATPase activity assay on lysate of treated cells; assay type: cell-based; conditions: A549 cells treated 24 h; C156-P1 100 nM or 1000 nM, PHY34 100 nM, Baf-A1 100 nM; 2 µg total cell protein
Chain of V-ATPase (Q9Y487 whole entry, looked up): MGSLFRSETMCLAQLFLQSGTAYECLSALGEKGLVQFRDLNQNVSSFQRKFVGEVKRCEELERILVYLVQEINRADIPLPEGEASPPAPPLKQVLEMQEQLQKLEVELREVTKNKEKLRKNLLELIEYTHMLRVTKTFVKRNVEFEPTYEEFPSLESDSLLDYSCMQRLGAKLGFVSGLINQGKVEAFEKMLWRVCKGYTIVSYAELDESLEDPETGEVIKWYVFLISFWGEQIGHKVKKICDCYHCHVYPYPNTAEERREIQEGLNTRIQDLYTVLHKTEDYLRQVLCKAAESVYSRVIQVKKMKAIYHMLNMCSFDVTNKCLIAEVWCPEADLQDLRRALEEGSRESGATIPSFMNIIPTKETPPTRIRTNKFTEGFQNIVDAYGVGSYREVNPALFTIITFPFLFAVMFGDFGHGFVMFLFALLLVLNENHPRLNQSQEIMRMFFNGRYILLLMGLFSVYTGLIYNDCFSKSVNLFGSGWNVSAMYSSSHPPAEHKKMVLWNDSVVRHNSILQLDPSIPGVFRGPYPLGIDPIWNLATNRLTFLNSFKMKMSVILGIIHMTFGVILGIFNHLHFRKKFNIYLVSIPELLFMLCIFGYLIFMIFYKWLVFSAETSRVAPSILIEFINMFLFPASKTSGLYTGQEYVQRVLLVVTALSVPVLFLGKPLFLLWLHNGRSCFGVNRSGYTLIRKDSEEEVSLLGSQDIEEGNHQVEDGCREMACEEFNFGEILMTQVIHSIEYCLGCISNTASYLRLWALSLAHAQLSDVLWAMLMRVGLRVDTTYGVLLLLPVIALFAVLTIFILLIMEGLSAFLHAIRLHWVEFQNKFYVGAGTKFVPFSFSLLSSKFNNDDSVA

[1] = tested on: endosomal acidification in A549 cells; assay: Endosomal acidification, LysoSensor DND-189 flow cytometry; assay type: cell-based, human; conditions: A549 cells pretreated 12 h; C156-P1 100 nM or 1 µM, Baf-A1 100 nM
in vitro = conditions: human
DENV-2 [2] = assay: microbe, parasite or virus in culture; conditions: Dengue virus, DENV2, A549, 48 h, read-out: EC50 against DENV-2
DENV-2 [3] = tested on: DENV-2
[4] = tested on: other Flaviviridae viruses; conditions: cited from earlier work
ATP6V0A2 = ATP6V0A2 mRNA level by RT-qPCR; assay type: cell-based, human; conditions: A549 cells, 100 nM, 48 h
ZIKV [5] = tested on: ZIKV; design: method as in PMID 29033372, PMID 28694387; conditions: cited from earlier work
ZIKV [6] = conditions: cited from earlier work
DENV-2 [7] = tested on: DENV-2; design: method as in PMID 30125275; conditions: read-out: EC50 against DENV-2 infection; cited from earlier work

SMILES: CO/C1=C\C(C)=C\[C@@H](C)[C@@H](O)[C@@H](C)C/C(C)=C/C=C/[C@H](OC)[C@@H]([C@@H](C)[C@@H](O)[C@H](C)[C@@]2(O)C[C@@H](O)[C@H](C)[C@@H](C(C)C)O2)OC1=O [Baf-A1, bafilomycin A1]
- V-ATPase activity (V-ATPase): significantly reduced V-ATPase activity
- Endosomal acidification (FITC intensity of LysoSensor DND-189) [1]: shifted the peak of FITC leftward

SMILES: COc1cc2c(O)c3c(c(-c4ccc5c(c4)OCO5)c2cc1OC)C(=O)OC3 [DP, diphyllin]
- CC50 (in vitro): 16000 nM
- EC50 (DENV-2 [2]): 401 nM
- SI (ratio of CC50 to EC50) (DENV-2 [3]; A549 cells, DENV-2): 39.98

SMILES: COc1cc(N[C@H](C(=O)c2c[nH]c3ccc(OC(F)(F)F)cc23)c2ccc(Cl)cc2OC)cc(S(C)(=O)=O)c1 [JNJ-1802]
- Inhibitory effects against other Flaviviridae viruses [4]: lacks inhibitory effects

SMILES: COc1cc2c(O[C@@H]3O[C@H](CO)[C@@H]4OC(C)(C)O[C@@H]4[C@H]3O)c3c(c(-c4ccc5c(c4)OCO5)c2cc1OC)C(=O)OC3 [PHY34, reference compound]
- V-ATPase activity (V-ATPase): significantly reduced V-ATPase activity
- ATP6V0A2 mRNA expression (ATP6V0A2): decrease in ATP6V0A2 mRNA expression
- Endosomal acidification (FITC intensity of LysoSensor DND-189) [1]: inhibited endosomal acidification
- DENV-2 infection (NS3 protein, Western blot) (DENV-2 [3]; A549 cells, MOI = 2, 48 h, indicated concentrations): inhibited endosomal acidification and DENV-2 infection in a dose-dependent manner

SMILES: COc1cc2c(O[C@@H]3O[C@H](C)[C@@H](O)[C@H](O)[C@H]3O)c3c(c(-c4ccc5c(c4)OCO5)c2cc1OC)C(=O)OC3 [PTA, patentiflorin A, reference compound]
- CC50 (in vitro): 195 nM
- EC50 (DENV-2 [2]): 38.1 nM
- SI (ratio of CC50 to EC50) (DENV-2 [3]): 5.12

SMILES: CCN(CC)CCCC(C)Nc1ccnc2cc(Cl)ccc12 (centres unmarked) [chloroquine]
- Inhibitory concentration (dose) required in mice against ZIKV (ZIKV [5]): 100 mg/kg
- Inhibitory concentrations necessary for ZIKV infection in cell culture (ZIKV [6]): micromolar range

SMILES: CCN(CCO)CCCC(C)Nc1ccnc2cc(Cl)ccc12 (centres unmarked) [hydroxychloroquine]
- Inhibitory concentration (dose) required in mice against ZIKV (ZIKV [5]): 40 mg/kg

SMILES: O=C(Nc1ccc([N+](=O)[O-])cc1Cl)c1cc(Cl)ccc1O [niclosamide]
- EC50 (DENV-2 [7]): ~10000 nM
